What was measured:
[1] = system: NY p81 specific CD8+ T cells; assay: Specific CD8+ T cell induction in mice, intracellular cytokine staining (NY p81 epitope); format: in vivo, BALB/c mice; settings: FIG. 5; ESO1 LP vaccines complexed with CHP, CpG oligo DNA
Description: (§1) A long chain peptide antigen ESO1 LP (native type) (Sequence No. 16) and a long chain peptide antigen ESO1 LP (Y6) (Sequence No. 17), both containing a mouse CD8+ T cell epitope sequence (NY p81 or NY p82) and a mouse CD4+ T cell epitope sequence (NY p91) that are derived from human NY-ESO-1 antigen, were synthesized. As the interepitope sequence between epitopes, the native amino acid sequence of NY-ESO-1 was retained in the ESO1 LP (native type) and the sequence of six consecutive tyrosines (Y6) was used in the ESO1 LP (Y6). Vaccines containing the respective long chain peptide antigens were administered to mice in the same manner as in FIG. 1 and the frequencies of CD8+ T cells and CD4+ T cells specific to the respective epitope sequences were measured by the intracellular cytokine staining method.
(§2) Long chain peptide antigens MEN, all containing three types of mouse CD8+ T cell epitope sequences (MA p265 (Sequence No. 27), NY p81 (Sequence No. 29), and mERK2 9m (Sequence No. 28)), were synthesized. The interepitope sequences between the respective epitopes were one to six consecutive tyrosines (Sequence Nos. 1 and 9-12). Vaccines containing the respective long chain peptide antigens were administered to mice in the same manner as in FIG. 1 and the frequencies of CD8+ T cells specific to the respective epitope sequences were measured by the intracellular cytokine staining method.
as §2, with “five” for “one”, “ten” for “six”, “13-15).” for “9-12).”, “method. […]” for “method.”

[2] = system: NY p91 specific CD4+ T cells; assay: Specific CD4+ T cell induction in mice, intracellular cytokine staining (NY p91 epitope); format: in vivo, BALB/c mice; settings: FIG. 5; ESO1 LP vaccines complexed with CHP, CpG oligo DNA
Description: as §1
Each CHP/long chain peptide complex as the vaccine and the CpG oligo DNA as the adjuvant were administered at the same time to a mouse. Administration was performed by subcutaneous injection on the back of the mouse. As the dose, the CHP/long chain peptide complex was administered at 0.05 to 0.1 mg equivalent of long chain peptide per administration. […]
The mouse spleen cells were added at 5×10^6 cells/0.5 mL per well to a 24-well culture plate (Nunc). […] The cells were analyzed by a flow cytometer (FACS Canto II, BD Biosciences) using the included analysis software (FACSDiva).

CD8+ T cell = settings: compared with NY p81; Non-Patent Document 8; cited from earlier work
[3] = system: NY p157 specific CD8+ T cell clone 1G4 cells; assay: Antigen presentation by LCL electroporated with mRNA vaccine, IFN-γ ELISPOT (1G4); format: cell-based, human; settings: FIG. 11; mRNA introduced into LCL by electroporation
Experimental: (§3) The interepitode sequences between the respective epitopes were the six consecutive amino acids shown in FIG. 11, namely sequence Nos. 31-34. Each mRNA was introduced in vitro as a vaccine into LCL by electroporation. Using these LCL as the antigen-presenting cells, they were co-cultured with CD8+ T cell clone 1G4 cells specific to NY p157 or CD8+ T cell clone RNT007#45 cells specific to MA4 p143 and the activation of the CD8+ T cells due to antigen presentation was measured by the IFN-γ ELISPOT method.
(§4) mRNA was introduced by an electroporation method (300V, 700 μs) using ECM830 into LCL that was rinsed and suspended in the same manner as in (9). The cells were cultured for 24 hours at 37° C. in the presence of 5% CO2 and then used as antigen-presenting cells.
(§5) 75 μL aliquots of anti-IFN-γ antibody for capture, diluted to an appropriate concentration, were dispensed into a 96-well plate (Millipore Corp., Multiscreen HA, MAHAS4510) specially designed for ELISPOT and left to stand overnight at 4° C. After discarding the liquid and rinsing with RPMI medium, 100 μL aliquots of RPMI medium containing 10% fetal bovine serum were dispensed and the plate was left to stand for not less than 1 hour at 37° C. The liquid was discarded, and the LCL prepared in (9) or (10) was adjusted to 5×10^4 cells/100 μL/well and added to each well. […]

[4] = system: MA4 p143 specific CD8+ T cell clone RNT007 #45 cells; assay: Antigen presentation by LCL electroporated with mRNA vaccine, IFN-γ ELISPOT (RNT007 #45); format: cell-based, human; settings: FIG. 11; mRNA introduced into LCL by electroporation
Experimental: as §3, §4, §5

Molecule: GARGPESRLLEFYLAMPFATPMEAELARRSLAQDAPPLPV [ESO1 LP (native type), reference compound]
- induction of NY p81 specific CD8+ T cells [1]: hardly observed
- induction of NY p91 specific CD4+ T cells [2]: clearly observed

Molecule: GPESRLL (Peptide sequence containing mouse CD8+ T cell epitope, NY p82)
- immunogenicity (CD8+ T cell): poorer in immunogenicity than NY p81

Molecule: GPESRLLYYYYYYYLAMPFATPMEAELARRSLA (Long chain peptide antigen, containing a mouse CD8+ T cell epitope sequence (NY p81) and a mouse CD4+ T cell epitope sequence (NY p91)) [ESO1 LP (Y6)]
- induction of NY p81 specific CD8+ T cells [1]: significant
- induction of NY p91 specific CD4+ T cells [2]: clearly observed

B1: NMW(Y6) mRNA: mRNA (RNA vaccine) from template cDNA Sequence No. 31, encoding long chain peptide antigen NMW with Y6 interepitope sequence (nucleic acid)
DNA: GGATCCATGAGCCTCCTGATGTGGATTACCCAATGCTATTACTACTATTACTACAACTATAAGAGATGTTTCCCCGTGATCTATTACTACTACTACTATTGCTATACATGGAATCAGATGAACCTGTGAGAATTC
modifications: mRNA transcribed from template cDNA; DNA sequence of a long chain peptide antigen, containing three types of human CD8+ T cell recognition epitope sequences (NY p157, MA4 p143, and WT1 p235)
- activation of 1G4 cells [3]: clearly confirmed
- activation of RNT007 #45 cells [4]: clearly confirmed

Source: patent US11179450B2, “Long chain antigen containing interepitope sequence that promotes antigen presentation to T cells” (MIE UNIVERSITY, priority 2013, dated 2021)
